Laboratory results: publication PMC10319809, “Chronic UCN2 treatment desensitizes CRHR2 and improves insulin sensitivity” (Nature Communications, 2023)
“And” between values parts separate entries of the source, which are not always exact repeats. Identical values can stand only once. Where no end group is shown, it is not given here.

Key:
[1] = system: CRHR2-expressing HEK293 cells; test: FAM-UCN2 internalization, fluorescence and live cell imaging of HEK293 cells; assay type: cell-based, human; settings: HEK293 cells with or without CRHR2, over 24 h
soleus muscle = test: Antisauvagine-30 pre-treatment, [3H]2DG uptake in soleus muscle; assay type: in vivo, mouse; settings: ASG30 300 ug/kg IP pre-treatment, UCN2 1 mg/kg, insulin 0.75 IU/kg
Experimental: To determine 2-deoxy-glucose (2DG) uptake in soleus muscle, mice were fasted for 5 h and anaesthetized with isoflurane. Animals were injected IP with 300 ug/kg of ASG30 or an equivalent volume of water. […] 15 min following 2DG administration, blood was collected via intracardiac stick and soleus and gastrocnemius muscles were dissected and snap frozen in liquid nitrogen. Samples were stored at −80 C until processing. Blood was treated with BaOH2 and ZnSO4 and after centrifugation, radioactivity was determined via liquid scintillation counting (Tri-Carb 5110TR, PerkinElmer, Waltham, MA). Tissue was homogenized and mixed with water or BaOH2 and ZnSO4 to determine total and unphosphorylated 2DG content.
(§1) Blood Glucose (mg/dL) +Veh +Veh
(§2) Supplementary Fig. 1. Antisauvagine-30 Blunts Effects of UCN2 on Glucose Uptake.
(§3) (A) Blood glucose during oGTT. Oral glucose gavage occurred at t = 0. At t = -30 animals were
(§4) treated with either Antisauvagine-30 (ASG30) or water. At t = -20 animals were treated with
(§5) either Saline, UCN2 alone, ASG30 alone, or ASG30 and UCN2 together. Mean±SD, n = 6.
(§6) Significance was assessed by one-way ANOVA and Tukey HSD.
(§7) (B) [3H]2-Deoxyglucose uptake by the soleus muscle in insulin-treated or untreated mice, following
(§8) pre-treatment of saline, UCN2, or ASG30 and UCN2. Mean±SD, n = 6.
(§9) Significance was assessed by one-way ANOVA and Tukey HSD. * P < 0.05, ** P < 0.01, *** P < […]

mice = test: Antisauvagine-30 pre-treatment, oGTT with UCN2; assay type: in vivo, mouse
Experimental: For glucose tolerance tests (GTTs), animals were fasted for 8 h with ad libitum access to water. Fasting glucose measurements were taken before 300ug/kg IP dose of ASG30 (Tocris Biosciences, Bristol, UK, Catalog No: 2071) or an equivalent volume of sterile distilled water. 10 min later animals received a 1 mg/kg IP dose of UCN2 or an equivalent volume of saline co-dosed with 300ug/kg of ASG30 or an equivalent volume of water. 20 min later animals received a […] oral glucose dose. Blood glucose measurements were taken via tail nick using the AlphaTRAK 2 Glucose Monitoring System (Zoetis, Parsippany-Troy Hills, NJ) at 10, 30, 60, and 120 min after dose.
as §1, §2, §3, §4, §5, §6, §7, §8, §9

mouse soleus muscle = test: Ex vivo soleus muscle [3H]2-deoxyglucose uptake; settings: individual muscles
Experimental: Soleus muscle was removed from fed animals anesthetized by an intraperitoneal injection of pentobarbital (10 mg/100 g body weight). Dissected soleus muscles were suspended at 5 mN of tension in incubation chambers (Model 610/820 M, Danish Myo-Technology, Denmark) containing Krebs-Ringer-Buffer supplemented with 0.1% BSA, 2 mM pyruvate and 8 mM Mannitol. During the entire incubation period the KRB was maintained at 30 °C and oxygenated with 95% O2 and 5% CO2. Following 10 min of pre-incubation muscles were incubated in Krebs buffer +/− 100 nM (−7.0 log[M]) UCN2. At the next time point, 30 min later, muscles were placed in baths containing Krebs buffer +/− 100 nM (−7.0 [M]) UCN2. At the next time point, 15 min later, muscles were placed in baths containing Krebs buffer +/− 100 nM (−7.0 log[M]) UCN2 + /− 60 nM Insulin (Actrapid, Novo Nordisk, Bagsvaerd, Denmark) for 15 min. For the ex vivo glucose uptake studies, 1 mM [^3H]2-deoxyglucose (Perkin-Elmer) and 7 mM [^14C]mannitol (Perkin-Elmer) was also added at this time. Muscles that were in saline in the first bath, saline in the second bath, and saline in the third bath were assigned to the SSS group. Muscles that were in saline in the first bath, saline in the second bath, and UCN2 in the third bath were assigned to the SSU group. Muscles that were in UCN2 in the first bath, saline in the second bath, and UCN2 in the third bath were assigned to the USU group. Muscles that were in saline in the first bath, UCN2 in the second bath, and UCN2 in the third bath were assigned to the SUU group. Following incubation, muscles were harvested, washed in ice-cold KRB and immediately frozen in liquid nitrogen.
Glucose uptake was determined in muscle protein lysates by assessing the accumulation of [^3H]2-deoxyglucose with the use of [^14C]mannitol to correct for the extracellular space. Radioactivity was measured by liquid scintillation counting.

[2] = target: T1, unmodified CRHR2a (corticotropin-releasing hormone receptor 2, alpha isoform) (human) (UniProt Q13324)
T1 sequence: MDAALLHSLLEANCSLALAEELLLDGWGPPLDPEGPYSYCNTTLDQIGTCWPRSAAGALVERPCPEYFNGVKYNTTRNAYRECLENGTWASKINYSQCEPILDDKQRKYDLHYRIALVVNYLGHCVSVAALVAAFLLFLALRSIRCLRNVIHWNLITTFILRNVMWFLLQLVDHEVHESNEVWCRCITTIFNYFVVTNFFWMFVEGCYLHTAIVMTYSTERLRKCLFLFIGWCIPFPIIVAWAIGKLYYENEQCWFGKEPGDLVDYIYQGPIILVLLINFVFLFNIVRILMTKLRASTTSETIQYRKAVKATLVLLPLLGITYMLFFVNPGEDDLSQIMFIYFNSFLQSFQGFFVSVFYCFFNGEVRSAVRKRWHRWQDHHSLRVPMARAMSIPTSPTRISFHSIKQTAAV

FAM-UCN2: Fluorescently labeled UCN2 (IVLSLDVPIGLLQILLEQARARAAREQATTNARILARVGHC; ends and bridges not checked; also: FAM label, position not given here)
internalization of the labeled ligand [1]: internalized in a receptor-dependent manner

Antisauvagine-30 [ASG30]
insulin-mediated glucose uptake in soleus muscle in vivo (soleus muscle): restored insulin-mediated glucose uptake
glucose tolerance in UCN2-treated animals during oGTT (mice; ASG30 300ug/kg IP pre-treatment): improved glucose tolerance
effect on UCN2-induced blood glucose (mice; ASG30 300ug/kg IP pre-treatment and co-dose with 1 mg/kg UCN2): significantly blunted UCN2’s effects on blood glucose

Insulin
2DG Uptake (mouse soleus muscle; Fig 6C, Vehicle +Insulin): 2.36 µmol/g/h and 3.79 µmol/g/h and 4.38 µmol/g/h and 3.22 µmol/g/h and 3.39 µmol/g/h
2DG Uptake (mouse soleus muscle; Fig 6D, Insulin-SSS): 3.619 µmol/g/h and 3.768 µmol/g/h and 3.935 µmol/g/h

B1: Urocortin 2 (UCN2) (ligand)
chain: IVLSLDVPIGLLQILLEQARARAAREQATTNARILARVGHC
Gs activation, ebBRET biosensor (Gas-RlucII leaving the plasma membrane), HEK293 cells with increasing UCN2; EC50 of UCN2 [2]: 0.1 nM
β-Arrestin 1 recruitment, ebBRET effector membrane translocation assay, HEK293 cells with increasing UCN2; EC50 of UCN2 [2]: 6.5 nM
β-Arrestin 2 recruitment, ebBRET effector membrane translocation assay, HEK293 cells with increasing UCN2; EC50 of UCN2 [2]: 6.1 nM
